Measured values published in patent US20110207760A1, “SN-38 COMPOSITIONS” (priority 2010, published 2011).

What was measured:
topoisomerase I enzyme = target: T1, topoisomerase I enzyme (Homo sapiens, UniProt P11387); details: estimated; times more active than irinotecan; cited from earlier work
T1 sequence (P11387 1-765): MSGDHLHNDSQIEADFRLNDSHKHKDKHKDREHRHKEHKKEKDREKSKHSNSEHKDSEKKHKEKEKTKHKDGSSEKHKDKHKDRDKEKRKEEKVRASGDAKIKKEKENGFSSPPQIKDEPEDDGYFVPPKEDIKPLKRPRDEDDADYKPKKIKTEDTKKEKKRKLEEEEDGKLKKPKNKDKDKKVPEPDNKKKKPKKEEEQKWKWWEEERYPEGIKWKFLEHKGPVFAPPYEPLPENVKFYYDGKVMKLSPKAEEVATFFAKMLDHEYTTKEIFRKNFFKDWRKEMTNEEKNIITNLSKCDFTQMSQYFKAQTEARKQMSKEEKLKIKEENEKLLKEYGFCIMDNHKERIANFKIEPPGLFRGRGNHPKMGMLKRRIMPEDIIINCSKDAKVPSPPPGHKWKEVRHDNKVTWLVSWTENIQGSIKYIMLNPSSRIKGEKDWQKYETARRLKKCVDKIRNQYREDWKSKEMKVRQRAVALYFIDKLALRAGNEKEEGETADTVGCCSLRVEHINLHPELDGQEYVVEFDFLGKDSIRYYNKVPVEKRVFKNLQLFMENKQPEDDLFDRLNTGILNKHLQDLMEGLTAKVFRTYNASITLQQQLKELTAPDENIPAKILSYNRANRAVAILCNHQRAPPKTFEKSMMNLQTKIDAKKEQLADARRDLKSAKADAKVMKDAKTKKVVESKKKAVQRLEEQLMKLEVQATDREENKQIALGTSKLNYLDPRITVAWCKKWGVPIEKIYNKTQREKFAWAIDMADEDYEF

[1] = Dissolution of SN-38 in aqueous SBECD at 100° C. (HPLC); assay type: physicochemical; details: boiling water bath 1 hour, 24 hours room temperature
Procedure: 37.6 mL water was added to 62.4 g sodium sulfobutyl ether beta-cyclodextrin (having a substitution level of about 7, as determined by NMR, and a water content of 3.9%, as determined by Karl-Fisher method), and was mixed until homogenous. The resulting viscous liquid was filtered through a 0.2 micrometer nylon filter to produce 60% (w/w) clear aqueous solution of SBECD. The density of this solution was 1.29 g/mL.
2 mg of SN-38 was added to 4g of such 60% (w/w) aqueous SBECD, and the mixture heated in a boiling water bath for 1 hour, allowed to cool and kept at room temperature for 24 hours, and then filtered through a 0.2 micrometer nylon filter with a 1 micrometer glass fiber prefilter. A clear yellow viscous liquid was produced.
(§1) Aliquots of the resultant SN-38 composition in aqueous SBECD were diluted 6 times with water, and further diluted with 10% (w/w) aqueous SBECD to obtain samples having a concentration suitable for HPLC analysis. The samples were analyzed by HPLC using column Symmetry Shield C18 3.5 μ, 50×4.6 mm (Waters), water (0.1% TFA)—acetonitrile (0.1% TFA) gradient and UV detection at 225 nm and 260 nm. The concentrations of SN-38 in the samples were determined by comparison of the area under the peak with the results obtained from analysis of standard solutions.
4 g samples of aqueous SBECD having a concentration of 20%, 30%, 40%, 50% and 60% (w/w), respectively, were mixed with 2 mg of SN-38. The mixtures were heated in boiling water bath for 1 hour and then were kept for 24 hours at room temperature. The mixtures were then filtered through a 0.2 micrometer nylon filter and analyzed by HPLC as described in Example 1.

[2] = Dissolution of SN-38 in 60% (w/w) aqueous SBECD at 34° C. (HPLC); assay type: physicochemical; details: Example 2: 60% (w/w) aqueous SBECD, 48 hours, filtered
Procedure: as §1
A sample of 4 g of 60% (w/w) aqueous SBECD was mixed with 2 mg of SN-38, and the mixture was incubated at 34° C. with constant mixing for 48 hours. The mixture was then filtered through 0.2 micrometer nylon filter and analyzed by HPLC as described in Example 1. The concentration of SN-38 in solution was 0.16 mg/g.

SMILES: CCc1c2c(nc3ccc(O)cc13)-c1cc3c(c(=O)n1C2)COC(=O)[C@]3(O)CC [SN-38, (4S)-4,11-Diethyl-4,9-dihydroxy-1H-pyrano[3′,4′:6,7]indolizino[1,2-b]quinoline-3,14(4H,12H)dione]
- activity relative to irinotecan (topoisomerase I enzyme): up to 1000 times
- SN-38 concentration ([1]; 20% SBECD): 0.03 mg/g of solution
- SN-38 concentration ([1]; 30% SBECD): 0.07 mg/g of solution
- SN-38 concentration ([1]; 40% SBECD): 0.13 mg/g of solution
- SN-38 concentration ([1]; 50% SBECD): 0.23 mg/g of solution
- SN-38 concentration ([1]; 60% SBECD): 0.40 mg/g of solution
- concentration of SN-38 in the product solution ([1]; Example 1: 60% (w/w) aqueous SBECD, filtered): 0.40 mg/g of composition
- concentration of SN-38 in solution [2]: 0.16 mg/g
